In patent US20090062294A1, “HETEROARYL-SUBSTITUTED UREA MODULATORS OF FATTY ACID AMIDE HYDROLASE” (priority 2007, published 2009):
Structures can show the parent of a compound that is named as a salt.

Experiments:
[1] = target: T1, FAAH (Homo sapiens, UniProt O00519); assay: Assay Method 1: FAAH assay, 3H-anandamide hydrolysis in homogenate of T84 cells or SK-N-MC cells transfected with human FAAH; assay type: biochemical; details: average of results, > = solubility limit or highest concentration tested
T1 sequence (O00519 1-579): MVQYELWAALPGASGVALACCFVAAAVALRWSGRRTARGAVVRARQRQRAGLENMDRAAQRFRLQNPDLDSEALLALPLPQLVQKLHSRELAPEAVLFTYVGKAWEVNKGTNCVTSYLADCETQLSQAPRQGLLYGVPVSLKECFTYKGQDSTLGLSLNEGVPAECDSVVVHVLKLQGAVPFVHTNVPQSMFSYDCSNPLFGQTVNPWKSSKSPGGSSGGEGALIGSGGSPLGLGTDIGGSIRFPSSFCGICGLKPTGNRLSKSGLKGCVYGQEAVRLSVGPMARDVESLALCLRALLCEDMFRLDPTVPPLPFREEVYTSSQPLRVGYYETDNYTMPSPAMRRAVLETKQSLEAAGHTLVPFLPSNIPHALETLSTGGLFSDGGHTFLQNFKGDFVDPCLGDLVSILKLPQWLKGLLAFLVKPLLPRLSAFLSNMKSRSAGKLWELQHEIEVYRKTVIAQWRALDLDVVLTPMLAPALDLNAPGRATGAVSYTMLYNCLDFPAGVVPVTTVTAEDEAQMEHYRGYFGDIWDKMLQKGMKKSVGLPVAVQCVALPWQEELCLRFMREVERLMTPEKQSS
Procedure, shortened: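 Hydrolysis of ^3H-anandamide (80 nM final, added last) was measured over 1 h at rt, using test compound with homogenate of T84 cells or human FAAH-transfected SK-N-MC cells. The homogenization buffer was 125 mM Tris, 1 mM EDTA, 0.02% Triton X-100, pH 9. Unbound labelled ethanolamine was passed through charcoal filters and scintillation-counted.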

[2] = target: T2, rat FAAH (Rattus norvegicus, UniProt P97612); assay: Assay Method 2: FAAH assay, 3H-anandamide hydrolysis in homogenate of SK-N-MC cells transfected with rat FAAH; assay type: biochemical; details: average of results, > = solubility limit or highest concentration tested
T2 sequence (P97612 1-579): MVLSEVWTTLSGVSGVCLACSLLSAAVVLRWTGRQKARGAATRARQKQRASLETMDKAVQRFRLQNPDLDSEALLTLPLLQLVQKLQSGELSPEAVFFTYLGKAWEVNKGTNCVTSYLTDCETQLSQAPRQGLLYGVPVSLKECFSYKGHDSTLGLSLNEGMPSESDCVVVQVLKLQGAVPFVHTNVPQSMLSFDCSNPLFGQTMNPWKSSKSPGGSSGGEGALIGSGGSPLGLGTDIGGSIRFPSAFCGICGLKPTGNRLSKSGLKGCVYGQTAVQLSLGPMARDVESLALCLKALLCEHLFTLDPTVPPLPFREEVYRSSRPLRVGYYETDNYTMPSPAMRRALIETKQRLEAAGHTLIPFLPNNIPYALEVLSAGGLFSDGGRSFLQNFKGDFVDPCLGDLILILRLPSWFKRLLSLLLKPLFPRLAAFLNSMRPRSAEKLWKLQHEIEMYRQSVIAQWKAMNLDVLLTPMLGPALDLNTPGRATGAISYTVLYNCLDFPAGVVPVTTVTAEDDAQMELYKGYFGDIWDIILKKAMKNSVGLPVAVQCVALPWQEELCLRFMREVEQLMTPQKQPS
Procedure, shortened: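 Read-out is scintillation counting of [3H]-ethanolamine passing through activated charcoal, after 1 h at rt with 80 nM final [3H]-AEA. Enzyme source: lysate of G418-selected SK-N-MC clones expressing rat FAAH, homogenized in Tris/EDTA/glycerol/0.02% Triton buffer, pH 9.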

SMILES | IC50 [1] [nM] | IC50 [2] [nM]
O=C(Nc1ccon1)N1CCN(Cc2cccc(Oc3ccc4ncccc4c3)c2)CC1 [Example 162, N-Isoxazol-3-yl-4-[3-(quinolin-6-yloxy)benzyl]piperazine-1-carboxamide] | 240 | 6400
N#Cc1ccc(Oc2cccc(CN3CCN(C(=O)Nc4ccon4)CC3)c2)cc1C(F)(F)F [Example 163, 4-{3-[4-Cyano-3-(trifluoromethyl)phenoxy]benzyl}-N-isoxazol-3-ylpiperazine-1-carboxamide] | 1000 | > 10000
Cc1cc(NC(=O)N2CCN(Cc3cccc(Oc4ccc(Cl)cc4)c3)CC2)no1 [Example 164, 4-[3-(4-Chlorophenoxy)benzyl]-N-(5-methylisoxazol-3-yl)piperazine-1-carboxamide] | 141 | 7000
O=C(Nc1nnn[nH]1)N1CCN(Cc2cnc3ccccc3c2)CC1 [Example 165, 4-(Quinolin-3-ylmethyl)-N-1H-tetrazol-5-ylpiperazine-1-carboxamide] | 8000 | 6000
O=C(Nc1nn[nH]n1)N1CCN(Cc2ccc(Br)c(Br)c2)CC1 [Example 167, 4-(3,4-Dibromobenzyl)-N-1H-tetrazol-5-ylpiperazine-1-carboxamide] | 340 | 80
O=C(Nc1nn[nH]n1)N1CCN(Cc2cccc(Oc3ccc(F)c(F)c3)c2)CC1 [Example 169, 4-[3-(3,4-Difluorophenoxy)benzyl]-N-1H-tetrazol-5-ylpiperazine-1-carboxamide] | 610 | 600
N#Cc1ccc(Oc2cccc(CN3CCN(C(=O)Nc4nn[nH]n4)CC3)c2)cc1C(F)(F)F [Example 170, 4-{3-[4-Cyano-3-(trifluoromethyl)phenoxy]benzyl}-N-1H-tetrazol-5-ylpiperazine-1-carboxamide] | 1200 | 1800
O=C(Nc1nnn[nH]1)N1CCN(Cc2cccc(Oc3ccc(C(F)(F)F)cc3)c2)CC1 [Example 171, N-1H-Tetrazol-5-yl-4-{3-[4-(trifluoromethyl)phenoxy]benzyl}piperazine-1-carboxamide] | 200 | 35
O=C(Nc1nnn[nH]1)N1CCN(Cc2cccc(Oc3cccc(OC(F)(F)F)c3)c2)CC1 [Example 173, N-1H-Tetrazol-5-yl-4-{3-[3-(trifluoromethoxy)phenoxy]benzyl}piperazine-1-carboxamide] | 225 | 200
O=C(Nc1nnn[nH]1)N1CCN(Cc2cccc(Oc3ccc(Cl)c(Cl)c3)c2)CC1 [Example 174, 4-[3-(3,4-Dichlorophenoxy)benzyl]-N-1H-tetrazol-5-ylpiperazine-1-carboxamide] | 100 | 30
O=C(Nc1nn[nH]n1)N1CCN(Cc2ccc3cc[nH]c3c2)CC1 [Example 178, 4-(1H-Indol-6-ylmethyl)-piperazine-1-carboxylic acid (2H-tetrazol-5-yl)-amide] | > 10000 | > 10000
O=C(Nc1nn[nH]n1)N1CCN(Cc2cccc(Oc3ccccc3)c2)CC1 [Example 181, 4-(3-Phenoxy-benzyl)-piperazine-1-carboxylic acid (2H-tetrazol-5-yl)-amide] | 5000 | 1600
O=C(Nc1nn[nH]n1)N1CCN(Cc2ccc(Cl)c(Cl)c2)CC1 [Example 182, 4-(3,4-Dichloro-benzyl)-piperazine-1-carboxylic acid (2H-tetrazol-5-yl)-amide] | 1700 | 340
O=C(Nc1nn[nH]n1)N1CCN(Cc2cccc(Oc3ccc(F)c(C(F)(F)F)c3)c2)CC1 [Example 185, 4-{3-[4-Fluoro-3-(trifluoromethyl)phenoxy]benzyl}-N-2H-tetrazol-5-ylpiperazine-1-carboxamide] | 450 | 440
O=C(Nc1nn[nH]n1)N1CCN(Cc2cccc(Oc3ccc(OCC(F)(F)F)cc3)c2)CC1 [Example 188, N-2H-Tetrazol-5-yl-4-{3-[4-(2,2,2-trifluoroethoxy)phenoxy]benzyl}-piperazine-1-carboxamide] | 80 | 20
O=C(Nc1nn[nH]n1)N1CCN(Cc2cccc(Oc3ccc4c(c3)OC(F)(F)O4)c2)CC1 [Example 189, 4-{3-[(2,2-Difluoro-1,3-benzodioxol-5-yl)oxy]benzyl}-N-2H-tetrazol-5-ylpiperazine-1-carboxamide] | 70 | 17
O=C(Nc1nn[nH]n1)N1CCN(Cc2cccc(Oc3ccccc3Cl)c2)CC1 [Example 190, 4-[3-(2-Chlorophenoxy)benzyl]-N-2H-tetrazol-5-ylpiperazine-1-carboxamide] | 3000 | 3700
Cn1cc(Br)c(NC(=O)N2CCN(Cc3cccc(Oc4ccc(Cl)cc4)c3)CC2)n1 [Example 192, 4-[3-(4-Chloro-phenoxy)-benzyl]-piperazine-1-carboxylic acid (4-bromo-1-methyl-1H-pyrazol-3-yl)-amide trifluoroacetic acid salt] | 4000 | > 10000
CCn1nccc1NC(=O)N1CCN(Cc2cccc(Oc3ccc(Cl)cc3)c2)CC1 [Example 193, 4-[3-(4-Chloro-phenoxy)-benzyl]-piperazine-1-carboxylic acid (2-ethyl-2H-pyrazol-3-yl)-amide trifluoroacetic acid salt] | 327 | 6000

More lines, in order of falling IC50 [1], values ahead:

IC50 [1] [nM] | IC50 [2] [nM] | SMILES
5000 | 1700 | O=C(Nc1nn[nH]n1)N1CCN(Cc2ccc(Br)cc2)CC1 [Example 177, 4-(4-Bromo-benzyl)-piperazine-1-carboxylic acid (2H-tetrazol-5-yl)-amide]
3000 | > 10000 | Cc1cc(NC(=O)N2CCN(Cc3cccc(Oc4ccc(Cl)cc4)c3)CC2)nn1C [Example 191, 4-[3-(4-Chloro-phenoxy)-benzyl]-piperazine-1-carboxylic acid (1,5-dimethyl-1H-pyrazol-3-yl)-amide trifluoroacetic acid salt]
2000 | 450 | O=C(Nc1nnn[nH]1)N1CCN(Cc2ccc3ccccc3c2)CC1 [Example 176, 4-(Naphthalen-2-ylmethyl)-N-1H-tetrazol-5-ylpiperazine-1-carboxamide]
1600 | 1200 | O=C(Nc1nn[nH]n1)N1CCN(Cc2cccc(OCc3ccccc3)c2)CC1 [Example 179, 4-(3-Benzyloxy-benzyl)-piperazine-1-carboxylic acid (2H-tetrazol-5-yl)-amide]
1600 | 1000 | N#Cc1ccc(Oc2cccc(CN3CCN(C(=O)Nc4nn[nH]n4)CC3)c2)cc1 [Example 187, 4-[3-(4-Cyanophenoxy)benzyl]-N-2H-tetrazol-5-ylpiperazine-1-carboxamide]
1400 | 430 | O=C(Nc1nn[nH]n1)N1CCN(Cc2cc3ccccc3s2)CC1 [Example 183, 4-Benzo[b]thiophen-2-ylmethyl-piperazine-1-carboxylic acid (2H-tetrazol-5-yl)-amide]
1200 | 480 | O=C(Nc1nn[nH]n1)N1CCN(Cc2ccc(Br)c(F)c2)CC1 [Example 168, 4-(4-Bromo-3-fluorobenzyl)-N-1H-tetrazol-5-ylpiperazine-1-carboxamide]
330 | 160 | O=C(Nc1nn[nH]n1)N1CCN(Cc2cccc(Oc3cccc(C(F)(F)F)c3)c2)CC1 [Example 186, N-2H-Tetrazol-5-yl-4-{3-[3-(trifluoromethyl)phenoxy]benzyl}piperazine-1-carboxamide]
50 | 10 | O=C(Nc1nnn[nH]1)N1CCN(Cc2cccc(Oc3ccc(SC(F)(F)F)cc3)c2)CC1 [Example 172, N-1H-Tetrazol-5-yl-4-(3-{4-[(trifluoromethyl)sulfanyl]phenoxy}benzyl)-piperazine-1-carboxamide]
13 | 7 | O=C(Nc1nn[nH]n1)N1CCN(Cc2cccc(Oc3ccc4ccccc4c3)c2)CC1 [Example 166, 4-[3-(Naphthalen-2-yloxy)benzyl]-N-1H-tetrazol-5-ylpiperazine-1-carboxamide]
